Results: patent US20260315464A1, “COMPOSITIONS, METHODS, AND SYSTEMS FOR MODULATING SPLICING OF MSH3” (REVIR THERAPEUTICS, INC., priority 2023, published 2026)
Each block holds one compound with its values, some of them ahead of it.

Tested on: MSH3
Assay: QPCR assay for levels of MSH3 upon compound treatment in HEK293T or AD293 cells (fold-change of MSH3 transcript, EC50 of MSH3 downregulation; total MSH3 exons 13/14, exons 20/21; Table 8)
Assay type: cell-based
Details: for mrna remaining at 1 µM / mrna remaining at 10 µM: Homo sapiens, fold-change of the MSH3 transcript, normalized to GAPDH; for mrna remaining at 1 µM: 1 μM compound; for mrna remaining at 10 µM: 10 μM compound; for EC50: EC50 of MSH3 downregulation, XtalPi
Method: HEK293T or AD293 cells were treated with Compound 274 at 1 μM and […]. RNA, cDNA and qPCR was prepared using TaqMan Cells-to-CT Express kit (ThermoFisher Scientific). Taqman assays (ThermoFisher Scientific) were used for quantification of total MSH3 exons 13/14 (cat #4351372, ID #: Hs00988993_ml), total MSH3 exons 20/21 (cat #4351372, ID #: Hs00989000_ml), exon 13/PE14A (Fwd: 5′-[…]; Rev: 5′-[…]; Probe: 5′-[…]) and exon 20/PE21A (Fwd: 5′-[…]; Rev: 5′-[…]; Probe: 5′-[…]) mRNA expression. Taqman GAPDH (cat #4448489, ID #: Hs02758991_g1) was used as a reference for data normalization.

Structure (SMILES): Cc1nc(C)c(-c2cnc3c(c2)C(=O)N(c2cnc(N(C)[C@H]4C[C@]5(C)CC[C@](C)(C4)N5)nn2)C3)s1 [Compound 200, 6-(3-(((1R,3s,5S)-1,5-dimethyl-8-azabicyclo[3.2.1]octan-3-yl)(methyl)amino)-1,2,4-triazin-6-yl)-3-(2,4-dimethylthiazol-5-yl)-6,7-dihydro-5H-pyrrolo[3,4-b]pyridin-5-one]
mrna remaining at 1 µM: 53%
mrna remaining at 10 µM: 53%

Structure (SMILES): Cn1cc(-c2cnc3c(c2)C(=O)N(c2ccc(O[C@H]4C[C@]5(C)CC[C@](C)(C4)N5)nn2)C3)c(C(F)(F)F)n1 [Compound 201, 6-(6-(((1R,3s,5S)-1,5-dimethyl-8-azabicyclo[3.2.1]octan-3-yl)oxy)pyridazin-3-yl)-3-(1-methyl-3-(trifluoromethyl)-1H-pyrazol-4-yl)-6,7-dihydro-5H-pyrrolo[3,4-b]pyridin-5-one]
mrna remaining at 1 µM: 90%
mrna remaining at 10 µM: 91%

Structure (SMILES): COc1cc(OC2CC(C)(C)NC(C)(C)C2)nnc1N1Cc2ncc(-c3cn(C)nc3C)cc2C1=O [Compound 203, 3-(1,3-dimethyl-1H-pyrazol-4-yl)-6-(4-methoxy-6-((2,2,6,6-tetramethylpiperidin-4-yl)oxy)pyridazin-3-yl)-6,7-dihydro-5H-pyrrolo[3,4-b]pyridin-5-one]
mrna remaining at 1 µM: 56%
mrna remaining at 10 µM: 62%

EC50: 1420 nM
Structure (SMILES): Cc1nn(C)cc1-c1cnc2c(c1)C(=O)N(c1ccc(OC3CC(C)(C)NC4(CC4)C3)nn1)C2 (centres unmarked) [Compound 205, 3-(1,3-dimethyl-1H-pyrazol-4-yl)-6-(6-((5,5-dimethyl-4-azaspiro[2.5]octan-7-yl)oxy)pyridazin-3-yl)-6,7-dihydro-5H-pyrrolo[3,4-b]pyridin-5-one]
mrna remaining at 1 µM: 90%
mrna remaining at 10 µM: 14%

EC50: 507 nM
Structure (SMILES): Cc1nn(C)nc1-c1cnc2c(c1)C(=O)N(c1ccc(O[C@H]3C[C@]4(C)CC[C@](C)(C3)N4)nn1)C2 [Compound 206, 3-(2,5-dimethyl-2H-1,2,3-triazol-4-yl)-6-(6-(((1R,3s,5S)-1,5-dimethyl-8-azabicyclo[3.2.1]octan-3-yl)oxy)pyridazin-3-yl)-6,7-dihydro-5H-pyrrolo[3,4-b]pyridin-5-one]
mrna remaining at 1 µM: 36%
mrna remaining at 10 µM: 13%

EC50: ~3050 nM
Structure (SMILES): Cc1nn(C)cc1-c1cnc2c(c1)C(=O)N(c1ccc(NC3CC(C)(C)NC(C)(C)C3)nn1)C2 [Compound 207, 3-(1,3-dimethyl-1H-pyrazol-4-yl)-6-(6-((2,2,6,6-tetramethylpiperidin-4-yl)amino)pyridazin-3-yl)-6,7-dihydro-5H-pyrrolo[3,4-b]pyridin-5-one]
mrna remaining at 1 µM: 108%
mrna remaining at 10 µM: 18%

Structure (SMILES): Cc1nn(C)cc1-c1cnc2c(c1)C(=O)N(c1ccc(O[C@@H]3CC(C)(C)NC(C)(C)[C@@H]3F)nn1)C2 [Compound 211, 3-(1,3-dimethyl-1H-pyrazol-4-yl)-6-(6-(((3S,4R)-3-fluoro-2,2,6,6-tetramethylpiperidin-4-yl)oxy)pyridazin-3-yl)-6,7-dihydro-5H-pyrrolo[3,4-b]pyridin-5-one]
mrna remaining at 1 µM: 90%
mrna remaining at 10 µM: 55%

Structure (SMILES): Cc1nn(C)cc1-c1cnc2c(c1)C(=O)N(c1ccc(O[C@@H]3C[C@@]4(C)CC[C@](C)(N4)[C@@H]3F)nn1)C2 [Compound 214, 3-(1,3-dimethyl-1H-pyrazol-4-yl)-6-(6-(((1S,2S,3R,5R)-2-fluoro-1,5-dimethyl-8-azabicyclo[3.2.1]octan-3-yl)oxy)pyridazin-3-yl)-6,7-dihydro-5H-pyrrolo[3,4-b]pyridin-5-one]
mrna remaining at 1 µM: 95%
mrna remaining at 10 µM: 24%

Structure (SMILES): Cc1nn(C)cc1-c1cnc2c(c1)C(=O)N(c1ccc(O[C@@H]3C[C@@]4(C)CC[C@](C)(N4)[C@H]3F)nn1)C2 [Compound 215, 3-(1,3-dimethyl-1H-pyrazol-4-yl)-6-(6-(((1S,2R,3R,5R)-2-fluoro-1,5-dimethyl-8-azabicyclo[3.2.1]octan-3-yl)oxy)pyridazin-3-yl)-6,7-dihydro-5H-pyrrolo[3,4-b]pyridin-5-one]
mrna remaining at 1 µM: 97%
mrna remaining at 10 µM: 76%

Structure (SMILES): CN(c1ncc(N2Cc3ncc(-c4cn(C)nc4F)cc3C2=O)nn1)[C@H]1C[C@]2(C)CC[C@](C)(C1)N2 [Compound 217, 6-(3-(((1R,3s,5S)-1,5-dimethyl-8-azabicyclo[3.2.1]octan-3-yl)(methyl)amino)-1,2,4-triazin-6-yl)-3-(3-fluoro-1-methyl-1H-pyrazol-4-yl)-6,7-dihydro-5H-pyrrolo[3,4-b]pyridin-5-one]
mrna remaining at 1 µM: 92%
mrna remaining at 10 µM: 78%

Structure (SMILES): Cc1nn(C)cc1-c1cnc2c(c1)C(=O)N(c1ccc(OC3CCNC(C)(C)C3)nn1)C2 (centres unmarked) [Compound 226, 3-(1,3-dimethyl-1H-pyrazol-4-yl)-6-(6-((2,2-dimethylpiperidin-4-yl)oxy)pyridazin-3-yl)-6,7-dihydro-5H-pyrrolo[3,4-b]pyridin-5-one]
mrna remaining at 1 µM: 86%
mrna remaining at 10 µM: 58%

EC50: 792 nM
Structure (SMILES): Cc1nn(C)nc1-c1cnc2c(c1)C(=O)N(c1ccc(OC3CC(C)(C)NC4(CC4)C3)nn1)C2 (centres unmarked) [Compound 228, 3-(2,5-dimethyl-2H-1,2,3-triazol-4-yl)-6-(6-((5,5-dimethyl-4-azaspiro[2.5]octan-7-yl)oxy)pyridazin-3-yl)-6,7-dihydro-5H-pyrrolo[3,4-b]pyridin-5-one]
mrna remaining at 1 µM: 58%
mrna remaining at 10 µM: 37%

EC50: 2040 nM
Structure (SMILES): CC[C@]12CC[C@](CC)(C[C@@H](Oc3ccc(N4Cc5ncc(-c6cn(C)nc6C)cc5C4=O)nn3)C1)N2 [Compound 239, 6-(6-(((1R,3s,5S)-1,5-diethyl-8-azabicyclo[3.2.1]octan-3-yl)oxy)pyridazin-3-yl)-3-(1,3-dimethyl-1H-pyrazol-4-yl)-6,7-dihydro-5H-pyrrolo[3,4-b]pyridin-5-one]
mrna remaining at 1 µM: 84%
mrna remaining at 10 µM: 19%

EC50: 2310 nM
Structure (SMILES): CC[C@]12CC[C@](C)(C[C@@H](Oc3ccc(N4Cc5ncc(-c6cn(C)nc6C)cc5C4=O)nn3)C1)N2 [Compound 240, 3-(1,3-dimethyl-1H-pyrazol-4-yl)-6-(6-(((1S,3R,5R)-1-ethyl-5-methyl-8-azabicyclo[3.2.1]octan-3-yl)oxy)pyridazin-3-yl)-6,7-dihydro-5H-pyrrolo[3,4-b]pyridin-5-one]
mrna remaining at 1 µM: 87%
mrna remaining at 10 µM: 16%

Structure (SMILES): Cn1cc(-c2cnc3c(c2)C(=O)N(c2ccc(O[C@H]4C[C@]5(C)CC[C@](C)(C4)N5)nn2)C3)c(Cl)n1 [Compound 261, 3-(3-chloro-1-methyl-1H-pyrazol-4-yl)-6-(6-(((1R,3s,5S)-1,5-dimethyl-8-azabicyclo[3.2.1]octan-3-yl)oxy)pyridazin-3-yl)-6,7-dihydro-5H-pyrrolo[3,4-b]pyridin-5-one]
mrna remaining at 1 µM: 48%
mrna remaining at 10 µM: 7%

Structure (SMILES): Cc1nn(C)cc1-c1cc(F)c2c(c1)C(=O)N(c1ccc(N(C)[C@H]3C[C@]4(C)CC[C@](C)(C3)N4)nn1)C2 [Compound 274, 6-(1,3-dimethyl-1H-pyrazol-4-yl)-2-(6-(((1R,3s,5S)-1,5-dimethyl-8-azabicyclo[3.2.1]octan-3-yl)(methyl)amino)pyridazin-3-yl)-4-fluoroisoindolin-1-one]
EC50: 454 nM
mrna remaining at 1 µM: 17%

Structure (SMILES): Cc1nn(C)cc1-c1cc(F)c2c(c1)C(=O)N(c1ccc(N(C)C3CC(C)(C)NC(C)(C)C3)nn1)C2 [Compound 275, 6-(1,3-dimethyl-1H-pyrazol-4-yl)-4-fluoro-2-(6-(methyl(2,2,6,6-tetramethylpiperidin-4-yl)amino)pyridazin-3-yl)isoindolin-1-one]
mrna remaining at 1 µM: 79%
mrna remaining at 10 µM: 26%

Structure (SMILES): Cc1nn(C)cc1-c1cc(F)c2c(c1)C(=O)N(c1ccc(OC3CC(C)(C)NC(C)(C)C3)nn1)C2 [Compound 276, 6-(1,3-dimethyl-1H-pyrazol-4-yl)-4-fluoro-2-(6-((2,2,6,6-tetramethylpiperidin-4-yl)oxy)pyridazin-3-yl)isoindolin-1-one]
mrna remaining at 1 µM: 103%
mrna remaining at 10 µM: 38%

Structure (SMILES): Cc1nn(C)cc1-c1cc(F)c2c(c1)C(=O)N(c1ccc(O[C@H]3C[C@]4(C)CC[C@](C)(C3)N4)nn1)C2 [Compound 278, 6-(1,3-dimethyl-1H-pyrazol-4-yl)-2-(6-(((1R,3s,5S)-1,5-dimethyl-8-azabicyclo[3.2.1]octan-3-yl)oxy)pyridazin-3-yl)-4-fluoroisoindolin-1-one]
mrna remaining at 1 µM: 64%
mrna remaining at 10 µM: 14%

Structure (SMILES): Cc1nn(C)cc1-c1cc(F)c2c(c1)C(=O)N(c1ccc(O[C@H]3CC(C)(C)NC(C)(C)[C@H]3F)nn1)C2 [Compound 280, 6-(1,3-dimethyl-1H-pyrazol-4-yl)-4-fluoro-2-(6-(((3R,4S)-3-fluoro-2,2,6,6-tetramethylpiperidin-4-yl)oxy)pyridazin-3-yl)isoindolin-1-one]
mrna remaining at 1 µM: 99%
mrna remaining at 10 µM: 66%

Structure (SMILES): Cc1nn(C)cc1-c1cc(F)c2c(c1)C(=O)N(c1ccc(O[C@H]3C[C@]4(C)CC[C@@](C)(N4)[C@H]3F)nn1)C2 [Compound 281, 6-(1,3-dimethyl-1H-pyrazol-4-yl)-4-fluoro-2-(6-(((1R,2R,3S,5S)-2-fluoro-1,5-dimethyl-8-azabicyclo[3.2.1]octan-3-yl)oxy)pyridazin-3-yl)isoindolin-1-one]
mrna remaining at 1 µM: 85%
mrna remaining at 10 µM: 41%

Structure (SMILES): Cc1nn(C)nc1-c1cc(F)c2c(c1)C(=O)N(c1ccc(OC3CC(C)(C)NC(C)(C)C3)nn1)C2 [Compound 282, 6-(2,5-dimethyl-2H-1,2,3-triazol-4-yl)-4-fluoro-2-(6-((2,2,6,6-tetramethylpiperidin-4-yl)oxy)pyridazin-3-yl)isoindolin-1-one]
mrna remaining at 1 µM: 30%
mrna remaining at 10 µM: 59%
